Values joined by “and” are separate entries in the source; they are usually repeats but may differ in a detail not shown here. Equal values may be shown once. “Also recorded” adds a separate entry of the source. Read-outs that look alike come from different tables or passages of the source.
Tests used:
HT29 cells [1] = assay: alamarBlue cell viability assay, HT29; assay type: cell-based, human; conditions: for IC50: Homo sapiens, HT-29
Protocol: (§1) Human colorectal HCT116 and HT29 carcinoma cells were cultured in Dulbecco’s Modified Eagle Medium (DMEM, Lonza) supplemented with 10% fetal bovine serum and 1% PenStrep. Cells were exposed to anoxic conditions for 24 h in a hypoxic chamber (MACS VA500 microaerophilic workstation, Don Whitley Scientific, Bingley, UK) with an atmosphere consisting of ≤0.02% O2, 5% CO2 and residual N2. Normoxic cells were grown in regular incubators with 21% O2, 5% CO2 at 37 °C.
(§2) The cytotoxic efficacy of the bio-reducible derivatives was determined based on cell viability assays using alamarBlue® (Invitrogen). In short, HT29 and HCT116 were seeded in 96-well plates and allowed to attach overnight. On the following day, the plates were exposed to normoxia or anoxia and medium was replaced with pre-incubated normoxic or anoxic DMEM. Compounds were dissolved in DMSO (0.5%, Sigma-Aldrich) and final concentrations were made with pre-incubated anoxic or normoxic DMEM and added to the wells after 24 h of exposure. Cells were exposed to compounds for a total of 2 h, after which the medium was washed off and replaced with fresh medium. Cells were allowed to grow for an additional 72 h under normoxic conditions prior to measurement. Cells were incubated with alamarBlue® for 2 h during normoxic conditions, which corresponds with their metabolic function, a measure for cell viability. Fluorescence was measured using plate reader (FLUOstar Omega, BMG LABTECH, Ortenberg, Germany) using a fluorescence excitation wavelength of 540–580 nm.
(§3) GraphPad Prism (version 5.03, GraphPad Software, San Diego, CA, USA) was used for all statistical analyses. For the cytotoxic compounds, IC50 values were estimated with the curve of the log (inhibitor) vs. normalized response (Variable slope).

HCT116 cells [2] = assay: alamarBlue cell viability assay, HCT116; assay type: cell-based, human; conditions: for IC50: 2 h exposure, 72 h regrowth
Protocol: as §1, §2, §3

hCA I = hCA I (Homo sapiens, UniProt P00915); assay: stopped flow CO2 hydrase assay, hCA I
Chain of hCA I (P00915 whole entry): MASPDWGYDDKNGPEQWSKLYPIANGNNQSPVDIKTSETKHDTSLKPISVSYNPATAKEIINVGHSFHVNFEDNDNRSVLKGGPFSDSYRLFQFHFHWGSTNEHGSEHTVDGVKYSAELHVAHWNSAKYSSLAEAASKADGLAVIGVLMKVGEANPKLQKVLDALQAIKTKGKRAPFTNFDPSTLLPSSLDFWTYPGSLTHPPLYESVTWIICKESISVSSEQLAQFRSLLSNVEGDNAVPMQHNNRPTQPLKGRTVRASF
Protocol: (§8) An Sx.18Mv-R Applied Photophysics (Oxford, UK) stopped-flow instrument was used for assaying the CA catalyzed CO2 hydration activity. […] In particular, CO2 was bubbled in distilled deionized water for 30 min so that the water was saturated (the concentration at a specific temperature is known from literature). In addition, a CO2 assay kit (from Merck, Darmstadt, Germany) was used to measure the concentration in variously diluted solutions obtained from the saturated one (which was kept at the same temperature and a constant bubbling during the experiments). […] The uncatalyzed rates were determined in the same manner and subtracted from the total observed rates. Stock solutions of inhibitor (0.1 mM) were prepared in distilled deionized water and dilutions up to 0.01 nM were done thereafter with distilled deionized water. Inhibitor and enzyme solutions were pre-incubated together for 15 min–2 h (or longer, i.e., 4–6 h) at room temperature (at 4 °C for the incubation periods longer than 15 min) prior to assay, in order to allow for the formation of the EI complex. The inhibition constants were obtained by non-linear least-squares methods using PRISM 3 and the Cheng–Prusoff equation, as reported earlier [38, 39], and represent the mean from at least three different determinations. hCA I was purchased by Merck (Darmstadt, Germany) and used without further purification, whereas all the other hCA isoforms were recombinant ones obtained in-house as reported earlier [40].

hCA II = hCA II (Homo sapiens, UniProt P00918); assay: stopped flow CO2 hydrase assay, hCA II
Protocol: as §8

hCA IX = hCA IX (Homo sapiens, UniProt Q16790); assay: stopped flow CO2 hydrase assay, hCA IX; conditions: for Selectivity Ratio KI hCA II/KI hCA IX: hCA II over hCA IX
Protocol: as §8

[3] = zebrafish embryo lethality (LC50); assay type: in vivo; conditions: AB, zebrafish, in vivo, zebrafish embryos from 24 hpf, end of 5 days of exposure
Protocol: (§4) The hypoxia-activated prodrugs were screened for their toxicity using 24-h post-fertilization zebrafish embryos as described earlier. The compounds were either dissolved in Embryonic medium (5.0 mM NaCl, 0.17 mM KCl, 0.33 mM CaCl2, 0.33 mM MgSO4, and 0.1% w/v Methylene Blue (Sigma-Aldrich, Darmstadt, Germany) or in dimethyl sulfoxide (DMSO) (Sigma-Aldrich, St. Louis, MO, USA) to prepare 100 mM stock solutions. Before the start of each experiment, the series of dilutions were made from the above stock in the embryonic medium.
(§5) The wild-type adult zebrafish (AB strains) were maintained at 28.5 °C in an incubator [35]. In each breeding tank, about embryos 3–5 pairs of male and female fish were set up overnight for collecting the embryos. The following morning, 1–2-h post-fertilization (hpf) embryos were collected in a sieve and rinsed with embryonic medium and kept the collected embryos in an incubator at 28.5 °C overnight. The toxicity evaluation studies of the compounds were performed using the fish that were 24-hpf. All the zebrafish experiments were performed at the zebrafish core facility, Tampere University, Finland, and according to the protocol used in our laboratory.
(§6) The LC50 values for all the three prodrugs were determined using 24-hpf embryos using […] different concentrations for each compound. We used a minimum of 30 zebrafish larvae for each concentration of the compound [28, 30, 36, 42]. The 24-hpf larvae were exposed to different concentrations of the inhibitors that ranged from 20 μM to […]. A dose response curve (DRC) was calculated using the DRM (model fitting function) of the DRC R package. The control group constituted an equal number of larvae not treated with any compound and the larvae that were treated with 1% DMSO. Toxicological evaluation studies were performed in 24-well plates (Corning V R Costar V R cell culture plates). In each well, we placed 1–2 24-hpf embryos in 1 mL of embryonic medium containing a diluted inhibitor. For control groups, 1% DMSO diluted in either embryonic medium or embryonic medium with no chemical compound. A minimum of three sets of experiments were carried out for each prodrug. The mortality of the larvae was checked every 24 h until 5 days after exposure to the prodrugs.

zebrafish embryos = assay: zebrafish embryo lethality (LC50); assay type: in vivo
Protocol: as §4, §5, §6

zebrafish larvae [4] = assay: phenotypic analysis of zebrafish larvae; assay type: in vivo; conditions: for adverse effects on observable phenotypic parameters of the larvae: 20 μM–2 mM, 5 days post exposure; for swim bladder development: at 5 days; for phenotypic defects: at lower concentrations compared to 1b
Protocol: as §4, §5
After exposure to the prodrugs, we evaluated the effects of these compound on the zebrafish larvae by analyzing the following eight phenotypic parameters: (1) mortality, (2) hatching (3) edema (4) swimming pattern, (5) yolk sack utilization, (6) heartbeat, (7) body shape, and (8) swim bladder development. The images of the developing larvae were taken using a Lumar V1.12 fluorescence microscope (Carl Zeiss MicroImaging GmbH, Göttingen, Germany) attached to a camera with a 1.5 lens (Carl Zeiss MicroImaging GmbH, Göttingen, Germany). The images were analyzed with AxioVision software versions 4.7 and 4.8 as described in our standard protocol for the assessment of the toxicity and safety of chemical compounds.

HT29 cells [5] = assay: clonogenic assay, HT29; assay type: cell-based, human; conditions: HT29, normoxia or anoxia, tested concentrations (10 to 100 μM), 30 min exposure
Protocol: as §1
(§7) Clonogenic survival HT29 and HCT116 cells were seeded with a high density for CA IX-dependent extracellular acidification. […] These cells were exposed to 23:30 h normoxic or anoxic conditions and 30 min to drugs after which cells were trypsinized and reseeded in triplicate with known cell numbers. Cells were allowed to grow for 9 (HCT116) and 14 (HT29) days to form colonies that were quantified after staining and fixation with 0.4% methylene blue in 70% ethanol. Surviving fractions were calculated and compared to control survival curves produced in the same experiment without compound treatment.

HCT116 cells [6] = assay: clonogenic assay, HCT116; assay type: cell-based, human; conditions: HCT116, normoxia or anoxia, tested concentrations (10 to 100 μM), 30 min exposure
Protocol: as §1, §7

zebrafish larvae [7] = assay: swim pattern analysis of zebrafish larvae; assay type: in vivo; conditions: 160 µM (concentration that did not induce phenotypic defects), end of 5 days of exposure
Protocol: The swim pattern of the zebrafish larvae was studied after 5 days of exposure to these compounds. For the analyses of swim pattern, about 15–20 zebrafish larvae after 5 days of exposure to the compounds were placed in a 35 mm × 15 mm petri dish containing embryonic medium, and the larvae were allowed to settle in the petri dish for 1 min. The movement of the zebrafish larvae was observed under the microscope for 1 min. […] The swim patterns were compared with the control group zebrafish larvae that were not treated with any inhibitor.

zebrafish larvae [8] = conditions: 100 μM; cited from earlier work
[9] = HT29, anoxia, 2 h exposure, 72 h regrowth, read-out: IC50A
[10] = HT29, normoxia, 2 h exposure, 72 h regrowth, read-out: IC50N
[11] = Homo sapiens, HCT-116, HCT116, anoxia, read-out: IC50A
[12] = Homo sapiens, HCT-116, HCT116, normoxia, read-out: IC50N
[13] = KI hCA I, mean from 3 different assays

| Molecule | IC50 (HT29 cells [1]; [9]) | IC50 (HT29 cells [1]; [10]) | IC50 (HCT116 cells [2]; [11]) | IC50 (HCT116 cells [2]; [12]) | Ki (hCA I; [13]) | Ki (hCA II) | Ki (hCA IX) | Selectivity Ratio KI hCA II/KI hCA IX (hCA IX) | adverse effects on observable phenotypic parameters of the larvae (zebrafish larvae [4]) | further results |
| --- | --- | --- | --- | --- | --- | --- | --- | --- | --- | --- |
| NS(=O)(=O)c1ccc(CCNC(=O)OCCNC(=O)c2cc([N+](=O)[O-])ccc2N(CCCl)CCCl)cc1 [Compound 3b, 2-(2-(bis(2-chloroethyl)amino)-5-nitrobenzamido) ethyl (4-sulfamoylphenethyl) carbamate] | > 500 µM | > 500 µM | 97.3 µM | 267 µM | 83 nM | 3.1 nM | 32.3 nM | 0.09 |  | cytotoxicity (HT29 cells [1]; HT29, normoxia and anoxia, tested concentrations): no cytotoxicity; HCR (IC50N/IC50A) (HCT116 cells [2]; HCT116, hypoxia selectivity cytotoxicity ratio): 2.7 and 2.74 |
| NS(=O)(=O)c1ccc(CCNC(=O)OCc2ccc([N+](=O)[O-])o2)cc1 [Compound 4b, (5-nitrofuran-2-yl)methyl (4-sulfamoylphenethyl) carbamate] |  |  |  |  | 84 nM and 83.8 nM | 15.5 nM | 5.7 nM | 2.72 | adverse effect on hatching, swim bladder development, the utilization of the yolk sac, and the shape of the body and induced pericardial edema | LC50 [3]: ~500 µM; mortality of the larvae (zebrafish embryos; 500 μM): significant mortality; swim bladder development (zebrafish larvae [4]; 250 μM): absence of a swim bladder; phenotypic defects (zebrafish larvae [4]; zebrafish larvae): phenotypic defects, such as edema and the absence of a swim bladder |
| (5-nitrothiophen-2-yl)methyl(4-sulfamoylphenethyl)carbamate [Compound 5b] |  |  |  |  |  |  |  | 1.31 | adverse effect on hatching, swim bladder development, the utilization of the yolk sac, and the shape of the body and induced pericardial edema | edema (zebrafish larvae [4]; as early as 2 days post exposure): induced edema; phenotypic defects (zebrafish larvae [4]; zebrafish larvae): phenotypic defects, such as edema and the absence of a swim bladder; Ki (hCA I; read-out: KI hCA I, mean from 3 different assays): 64.7 nM; Ki (hCA II; read-out: KI hCA II, stopped flow CO2 hydrase assay, mean from 3 different assays): 19.8 nM; Ki (hCA IX; read-out: KI hCA IX, stopped flow CO2 hydrase assay, mean from 3 different assays): 15.1 nM |
| Cn1c(COC(=O)NCCc2ccc(S(N)(=O)=O)cc2)cnc1[N+](=O)[O-] [Compound 1b, (1-methyl-2-nitro-1H-imidazol-5-yl) methyl (4-sulfamoylphenethyl) carbamate] | 204 µM | > 500 µM | 59.3 µM | 149 µM | 167 nM | 30.6 nM | 7.6 nM |  | minimal or no adverse effects | HCR (IC50N/IC50A) (HT29 cells [1]; HT29, hypoxia selectivity cytotoxicity ratio): >2.44; IC50N (HT29 cells [1]; HT29, normoxia, 2 h exposure, 72 h regrowth): no detectable cytotoxicity; IC50 (HCT116 cells [2]; HCT116, anoxia, read-out: IC50A): 59.4 µM; clonogenic cell survival (HT29 cells [5]): did not reduce clonogenic cell survival; clonogenic cell survival (HCT116 cells [6]): did not reduce clonogenic cell survival; LC50 [3]: ~1400 µM; mortality of the larvae (zebrafish embryos; 1 mM, end of 5 days of exposure): did not cause any mortality; also recorded: no mortality observed; swim bladder development (zebrafish larvae [4]; 1000 μM): absence of a swim bladder; phenotypic abnormalities (zebrafish larvae [4]; zebrafish larvae, 1 mM): no or minimal phenotypic abnormalities; swim pattern (zebrafish larvae [7]): did not induce phonotypic abnormalities in the larvae as well as abnormal or ataxic swim movement |
| Cc1ncc([N+](=O)[O-])n1CCOC(=O)NCc1ccc(S(N)(=O)=O)cc1 [Compound 2c, 2-(2-methyl-5-nitro-1H-imidazol-1-yl) ethyl (4-sulfamoylbenzyl) carbamate] | > 500 µM | > 500 µM | > 500 µM | > 500 µM | 2.3 nM | 4 nM | 14.1 nM | 0.28 |  |  |
| Cc1ncc([N+](=O)[O-])n1CCOC(=O)NCCc1ccc(S(N)(=O)=O)cc1 [Compound 2b, 2-(2-methyl-5-nitro-1H-imidazol-1-yl) ethyl (4-sulfamoylphenethyl) carbamate] | > 500 µM | > 500 µM | > 500 µM | > 500 µM | 3.7 nM | 4.3 nM | 12.1 nM | 0.35 |  |  |
| NS(=O)(=O)c1ccc(CNC(=O)OCCNC(=O)c2cc([N+](=O)[O-])ccc2N(CCCl)CCCl)cc1 [Compound 3c, 2-(2-(bis(2-chloroethyl)amino)-5-nitrobenzamido) ethyl (4-sulfamoylbenzyl)carbamate] | > 500 µM | > 500 µM | > 500 µM | > 500 µM | 2180 nM | 83.7 nM | 88.7 nM | 0.94 |  |  |
| Cc1ncc([N+](=O)[O-])n1CCNS(N)(=O)=O [DTP348] |  |  |  |  |  |  |  |  |  | neurotoxic effect (zebrafish larvae [8]): induced a neurotoxic effect; swim pattern (zebrafish larvae [8]): ataxic movement pattern |

From publication PMC7287649, “Hypoxia-Activated Prodrug Derivatives of Carbonic Anhydrase Inhibitors in Benzenesulfonamide Series: Synthesis and Biological Evaluation” (Molecules, 2020)
